This is an account of results in article PMC3766423 (Cancer research, 2013).

This test addresses WRN helicase (Werner syndrome protein) (Homo sapiens, UniProt Q14191). As to the kind of experiment: in vitro WRN helicase. It is filed as biochemical.

The structures appear in SMILES notation.

Sequence of WRN helicase (Werner syndrome protein) (Q14191 2-1432): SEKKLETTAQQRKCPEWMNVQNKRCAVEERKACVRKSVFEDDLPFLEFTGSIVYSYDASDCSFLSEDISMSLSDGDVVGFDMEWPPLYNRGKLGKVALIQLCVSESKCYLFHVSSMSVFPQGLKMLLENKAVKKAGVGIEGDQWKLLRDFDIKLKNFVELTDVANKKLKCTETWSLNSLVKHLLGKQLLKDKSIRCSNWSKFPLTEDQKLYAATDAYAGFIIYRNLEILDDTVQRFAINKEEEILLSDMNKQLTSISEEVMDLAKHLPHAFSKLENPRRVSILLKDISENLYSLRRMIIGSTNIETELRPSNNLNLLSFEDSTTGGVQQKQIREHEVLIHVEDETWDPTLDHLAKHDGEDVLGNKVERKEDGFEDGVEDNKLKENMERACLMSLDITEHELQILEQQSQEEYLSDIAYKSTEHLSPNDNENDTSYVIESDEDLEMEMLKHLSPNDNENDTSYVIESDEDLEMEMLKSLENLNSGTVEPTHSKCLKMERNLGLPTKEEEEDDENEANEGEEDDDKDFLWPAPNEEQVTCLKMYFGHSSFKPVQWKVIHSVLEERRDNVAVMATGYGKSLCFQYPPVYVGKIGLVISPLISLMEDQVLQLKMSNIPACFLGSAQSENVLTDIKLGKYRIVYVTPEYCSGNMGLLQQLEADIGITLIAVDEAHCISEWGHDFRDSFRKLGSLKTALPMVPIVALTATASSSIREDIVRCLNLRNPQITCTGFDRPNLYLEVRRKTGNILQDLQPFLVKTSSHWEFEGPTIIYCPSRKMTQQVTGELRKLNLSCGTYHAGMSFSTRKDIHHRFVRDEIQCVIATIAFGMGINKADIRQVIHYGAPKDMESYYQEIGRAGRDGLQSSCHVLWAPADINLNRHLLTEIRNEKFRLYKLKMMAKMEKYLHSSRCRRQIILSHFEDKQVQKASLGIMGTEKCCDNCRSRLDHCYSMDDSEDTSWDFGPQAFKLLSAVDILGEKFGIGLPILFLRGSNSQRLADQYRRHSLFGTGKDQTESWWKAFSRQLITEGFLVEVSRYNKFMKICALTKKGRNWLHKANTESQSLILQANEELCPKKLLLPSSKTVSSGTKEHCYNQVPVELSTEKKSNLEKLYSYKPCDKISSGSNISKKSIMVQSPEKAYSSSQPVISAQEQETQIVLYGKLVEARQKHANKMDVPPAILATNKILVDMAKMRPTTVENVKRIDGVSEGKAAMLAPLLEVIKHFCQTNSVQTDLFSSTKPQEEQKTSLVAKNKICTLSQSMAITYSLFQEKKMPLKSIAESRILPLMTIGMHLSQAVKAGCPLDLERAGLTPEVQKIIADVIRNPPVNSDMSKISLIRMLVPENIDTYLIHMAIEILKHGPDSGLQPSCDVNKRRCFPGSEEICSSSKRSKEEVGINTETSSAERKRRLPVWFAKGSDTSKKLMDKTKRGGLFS

In general, IC50 refers to the concentration that gives 50% inhibition. Low readings indicate higher potency, high ones lower potency. `CC(C)(CN1C(=O)C(Cl)=C(Cl)C1=O)CN1C(=O)C(Cl)=C(Cl)C1=O` [NSC 617145] had an IC50 of 230 nM.
